Test results as given in patent publication US7919464B2, “Use of a peptide that interacts with αvβ3 integrin of endothelial cell” (Kyungpook National University Industry-Academic Cooperation …, priority 2003, dated 2011).
Ends that are not written are not given here.

B1: ΔH1H2(6): smallest deletion mutant fragment, amino acids 548-614 of SEQ ID NO: 1, SEQ ID NO: 10 (protein, listed as Homo sapiens)
chain: RALPPRERSRLLGDAKELANILKYHIGDEILVSGGIGALVRLKSLQGDKLEVSLKNNVVSVNKEPVA

Experiments:
HUVECs [1] = assay: HUVECs adhesion to plates coated with βig-h3, its fas-1 domains or mutants; assay type: cell-based, human; details: 10 μg/ml protein coated on plate; attached cells by absorbance at 405 nm; control BSA
Procedure: Cell adhesion assay was performed according to the method described by Kim, J.-E. et al., J. Biol. Chem., 277:4615946165, 2002. For this purpose, 10 μg/ml of each of the recombinant proteins (βig-h3 His-β-b, βig-h3 D-I, βig-h3 D-II, βig-h3 D-III and βig-h3 D-IV) prepared in Example 1 was placed into a flat-bottomed 96-well ELISA (enzyme-linked immunosorbent assay) plate (Costar, Corning Inc., NY) and then incubated overnight at 4° C., to coat the surface of the plate. As a control, 2% BSA was coated on the plate. Then, the plate was treated with PBS (phosphate-buffered saline) containing 2% BSA, and blocked at room temperature for one hour.
Meanwhile, HUVECs (human umbilical vein endothelial cells; Clonetics, San Diego, Calif.) were incubated in EGM medium (Clonetics, San Diego, Calif.) containing 2% FBS (Fetal Bovine Serum) under a condition of 37° C. and 5% CO2. The incubated cells were suspended in medium at a density of 3×10^5 cells/ml, and 0.1 ml of the cell suspension was added to each well of the plate. Next, the cells were incubated at 37° C. for 30 minutes and washed one time with PBS buffer to remove cells which had not been attached to the plate. Attached cells were added with 50 mM citrate buffer (pH 5.0) containing 3.75 mM p-nitrophenyl-N-acetyl β-D-glycosaminide and 0.25% Triton X-100, and incubated at 37° C. for one hour. Thereafter, 50 mM glycine buffer (pH 10.4) containing 5 mM EDTA was added to block the activity of the enzyme. The absorbance was measured at a 405-nm in a Bio-Rad model 550 microplate reader. Here, the higher the number of cells adhered to the plate, the higher the absorbance.
Each of the deletion mutants was generated by PCR using a cDNA template encoding the fourth fas-1 domain (SEQ ID NO: 5) (Kim, J.-E. et al., J. Biol. Chem., 275:30907-30915, 2000). Each of the PCR-amplified DNA fragments was cloned into the EcoRV/Xhol sites of the pET-29b(+) vector (Novagen; Madison, Wis.). The mutations were confirmed by sequence analysis, and the deletion mutants were expressed and purified according to a prior method (Kim, J.-E., et al., J. Cell. Biochem., 77:169-178, 2000). Thereafter, the cell adhesion activity of each of the deletion mutants was tested in the same manner as in Example 2.
Previously, the present inventors reported that an YH motif, which contains tyrosine-histidine residues highly conserved in the fragment corresponding to amino acids 548-614 of SEQ ID NO: 1, and several leucine and isoleucine residues adjacent to the tyrosine-histidine residues, binds to the αvβ5 integrin (Kim, J.-E., et al., J. Biol. Chem., 277:46159-46165, 2002). Thus, the present inventors suspected that the YH motif may also interact with the αvβ3 integrin to mediate endothelial cell adhesion. For this reason, in the present invention, the tyrosine-histidine residues conserved in the fas-1 domains, and/or the leucine and isolucine residues adjacent to the tyrosine-histidine residues, were substituted in various combinations by alanine or serine (Kim, J.-E., et al., J. Biol. Chem. 277:4615946165, 2002)(see FIG. 4b). The amino acid sequences of the prepared YH motif mutants are shown in SEQ ID NO: 17 to SEQ ID NO: 22. The mutations were confirmed by sequence analysis. Then, the substitution mutants were expressed and purified according to a known method (Kim, J.-E., et al., J. Cell. Biochem., 77:169-178, 2000). The substitution mutants were tested for their cell adhesion activity according to the same manner as in Example 2.

HUVECs [2] = assay: HUVECs migration assay in transwell plate coated with βig-h3; assay type: cell-based, human; details: 500 μM or 1 mM peptide of SEQ ID NO: 26
Procedure: Firstly, to examine whether βig-h3 is involved in the migration of endothelial cells, the present inventors performed cell migration assay. The cell migration assay was performed in a transwell plate (8 μm pore size, Costar, Cambridge, Mass.). The undersurface of the membrane was coated with the recombinant βig-h3 His-β-b protein (10 μg/ml) prepared in Example 1 at 4° C., and then, blocked for 1 hour at room temperature with PBS buffer containing 2% BSA. Meanwhile, HUVECs were added with an anti-αvβ3 antibody (LM609) or an anti-αvβ5 antibody (P1F6) and preincubated at 37° C. for 30 minutes. A control was added with mouse IgG. Then, the HUVECs preincubated with the antibody were suspended in medium at a density of 3×10^5 cells/ml, and 0.1 ml of the cell suspension was added to the upper compartment of the filter. The cells were allowed to migrate at 37° C. for 6-8 hours.
Migration was terminated by removing the cells from the upper compartment of the filter with a cotton swab. The filters were fixed with 8% glutaraldehyde and stained with crystal violet. The extent of cell migration was determined by light microscope, and within each well, cell counting was done in nine randomly selected fields HPF (Microscopic high power fields, ×200).
Then, the present inventors examined whether the migration of endothelial cells is inhibited by the YH18 synthetic peptide. […]

C57/BL6 mice = assay: In vivo Matrigel plug assay; details: subcutaneous, 7 days
Procedure: In the present invention, the angiogenesis-inhibitory effect of the YH18 synthetic peptide, which had been proven in vitro assay according to Example 8-1, was assayed in vivo. An in vivo Matrigel plug assay was performed according to the method described by Maeshima, Y. et al., J. Biol. Chem., 275:23745-23750, 2000. 5-6 week old male C57/BL6 mice purchased from Hyochang scientific company, Korea, were used.
First, Matrigel (BD Biosciences, MA) was mixed with 20 units/ml heparin, 150 ng/ml bFGF (basic fibroblast growth factor, R&D system, International, Inc), and a YH18 synthetic peptide represented by SEQ ID NO: 26. As a control to the YH18 synthetic peptide, an YH18-con. peptide was used, and a control to peptide treatment was treated with 5% DMSO (solvent). The Matrigel mixture was injected subcutaneously to the C57/BL6 mice. After 7 days, the mice were sacrificed, and the Matrigel plugs were removed and fixed in 4% paraformaldehyde. The Matrigel plugs were buried in paraffin, sectioned and stained with H&E. Their sections were examined by light microscope, the number of blood vessels from 4-6 HPF (high power fields; ×200) was counted and averaged. Each group consisted of 3 or 4 Matrigel plugs.

HUVECs [3] = tested on: HUVECs
Procedure: First, 100 μl of Matrigel (Chemicon, International Inc, Temecula, Calif.) was added to each well of a 96-well plate and allowed to polymerize. HUVECs were suspended in medium at a density of 3×10^5 cells/ml, and 0.1 ml of the cell suspension was added to each well of the well plate coated with Matrigel. At this time, 500 μM or 1 mM of the YH18 synthetic peptide represented by SEQ ID NO: 26 was added together. A control to peptide treatment was treated with 5% DMSO (solvent), and a control to the YH18 synthetic peptide was treated with the YH18-con. peptide represented by SEQ ID NO: 27. Thereafter, the cells were incubated at 37° C. for 16-18 hours. The cells were photographed, and endothelial tubes were counted and averaged.

| Molecule | endothelial cell (HUVECs) adhesion activity (HUVECs [1]) | other results |
| --- | --- | --- |
| D-IV-AA: D-IV mutant, tyrosine-histidine residues substituted with alanine-alanine (GDAKELANILKAAIGDEILVSGGIGALVR) | equal to those of the fas-1 domain (D-IV) and its fragment (H1H2(6)) |  |
| D-IV-AAR: D-IV mutant, tyrosine-histidine to alanine-alanine and isoleucine/leucine on one side to serine (GDAKELANILKAASGDESSVSGGIGALVR; D-IV-AAR) | somewhat lower than those of D-IV-LAA and D-IV-AAR |  |
| D-IV-L: D-IV mutant, leucine and isoleucine residues adjacent to one side of tyrosine-histidine substituted with serine (GDAKESANSSKYHIGDEILVSGGIGALVR; D-IV-L) | equal to those of the fas-1 domain (D-IV) and its fragment (H1H2(6)) |  |
| D-IV-LAA: D-IV mutant, tyrosine-histidine to alanine-alanine and isoleucine/leucine on one side to serine (GDAKESANSSKAAIGDEILVSGGIGALVR; D-IV-LAA) | somewhat lower than those of D-IV-LAA and D-IV-AAR |  |
| D-IV-LYHR: D-IV mutant, all isoleucine and leucine residues on both sides of tyrosine-histidine substituted with serine (GDAKESANSSKYHSGDESSVSGGIGALVR; D-IV-LYHR) | reduced to half that of the fas-1 domain |  |
| D-IV-R: D-IV mutant, leucine and isoleucine residues adjacent to one side of tyrosine-histidine substituted with serine (GDAKELANILKYHSGDESSVSGGIGALVR; D-IV-R) | equal to those of the fas-1 domain (D-IV) and its fragment (H1H2(6)) |  |
| KELANILKYHIGDEILVS [YH18 synthetic peptide] |  | inhibition of HUVECs migration toward βig-h3 by YH18 synthetic peptide (HUVECs [2]): inhibited the migration of endothelial cells toward βig-h3; number of blood vessels in Matrigel plug (C57/BL6 mice; 500 μM peptide in Matrigel with bFGF and heparin): significant reduction in the number of blood vessels; inhibition of angiogenesis in Matrigel plug (C57/BL6 mice; 1 mM peptide in Matrigel with bFGF and heparin): complete inhibition of angiogenesis; IC50 (HUVECs [3]): 500 µM; inhibition of HUVECs tube formation (HUVECs [3]; 500 μM or 1 mM peptide, dose-dependent): selectively inhibited |
| B1 | still retains endothelial cell adhesion activity |  |
